Literature values, collected in US20070092586A1, “Compositions and methods for the administration psychotropic drugs which modulate body weight” (Alamo Pharmaceuticals, priority 2005, published 2007).

Key:
[1] = lithium maintenance therapy; J. Clin. Psychopharmacol. 1988

| SMILES | patients with weight gains of over 10 kg [1] [%] | increase in body weight (mean) (59 patients taking clozapine for an unstated period, P<0.05, Gerlach et al. 1989) [kg] | mean increase in body weight (over 21 months, patients who responded to clozapine and remained clinically stable, Jalenques et al. 1996) [kg] |
| --- | --- | --- | --- |
| O=C([O-])[O-].[Li+].[Li+] [lithium] | 20 |  |  |
| CN1CCN(C2=Nc3cc(Cl)ccc3Nc3ccccc32)CC1 [clozapine, 8-chloro-11-(4-methyl-1-piperazinyl)-5H-dibenzo[b,e] [1,4] diazepine] |  | 2.8 | 12.4 |
